Where only a bound is given, the exact number is not on record here.

Ki data for eight compounds are collected here from patent US20090306112A1, “ANTIVIRAL PROTEASE INHIBITORS” (Gilead Sciences, Inc., priority 2006, published 2009).

This experiment concerns the target T1, recombinant HIV-1 protease expressed in E. Coli (Human immunodeficiency virus type 1 group M subtype B, UniProt P04585).
T1 construct: Enzyme: recombinant HIV-1 protease expressed in E. Coli; purchased Bachem California, Inc. (Torrance, Calif.) H-9040; host or cells: E. coli
Briefly: HIV-1 Protease Enzyme Assay (Ki), fluorimetric detection of hexapeptide substrate cleavage. Conditions: tight-binding competitive inhibition; 37° C., pH 5.3, final substrate concentration 40 μM, enzyme 1 to 2.5 nM. The format is biochemical. An excerpt:
Biological Assays Used for the Characterization of HIV Protease Inhibitors HIV-1 Protease Enzyme Assay (Ki)
The assay is based on the fluorimetric detection of synthetic hexapeptide substrate cleavage by HIV-1 protease in a defined reaction buffer as initially described by M. V. Toth and G. R. Marshall, Int. J. Peptide Protein Res. 36, 544 (1990)
Substrate: (2-aminobenzoyl)Thr-Ile-Nle-(p-nitro)Phe-Gln-Arg
Substrate supplied by Bachem California, Inc. (Torrance, Calif.; Cat. no. H-2992)
Enzyme: recombinant HIV-1 protease expressed in E. Coli
Enzyme supplied by Bachem California, Inc. (Torrance, Calif.; Cat. no. H-9040)
Reaction buffer: • 100 mM ammonium acetate, pH 5.3 • 1 M sodium chloride • 1 mM ethylendiaminetetraacetic acid • 1 mM dithiothreitol • 10% dimethylsulfoxide
Assay Protocol for the Determination of Inhibition Constant Ki:
• 1. Prepare series of solutions containing identical amount of the enzyme (1 to 2.5 nM) and a tested inhibitor at different concentrations in the reaction buffer • 2. Transfer the solutions (190 uL each) into a white 96-well plate • 3. Preincubate for 15 min at 37° C. • 4. Solubilize the substrate in 100% dimethylsulfoxide at a concentration of 800 μM. Start the reaction by adding 10 μL of 800 μM substrate into each well (final substrate concentration of 40 μM) • 5. Measure the real-time reaction kinetics at 37° C. by using Gemini 96-well plate fluorimeter (Molecular Devices, Sunnyvale, Calif.) at λ(Ex)=330 nm and λ(Em)=420 nm • 6. Determine initial velocities of the reactions with different inhibitor concentrations and calculate Ki (in picomolar concentration units) value by using EnzFitter program (Biosoft, Cambridge, U.K.) according to an algorithm for tight-binding competitive inhibition described by Ermolieff J., Lin X., and Tang J., Biochemistry 36, 12364 (1997)
Regarding `COC(=O)NC(C(=O)NN(Cc1ccc(-c2ccncc2)cc1)C[C@H](O)[C@H](Cc1ccc(OC)cc1)NC(=O)O[C@H]1CO[C@H]2OCC[C@H]21)C(C)(C)C` (some centres unmarked) [Example Q], the Ki was under 0.03 nM. Regarding `COC(=O)NC(C(=O)NN(Cc1ccc(OCc2ccncc2)cc1)C[C@H](O)[C@H](Cc1ccc(OC)cc1)NC(=O)O[C@H]1CO[C@H]2OCC[C@H]21)C(C)(C)C` (some centres unmarked) [Example T], the Ki was under 0.03 nM.

As for `CC(C)(C)C(NC(=O)OCc1cscn1)C(=O)NN(Cc1ccc(-c2ccccn2)cc1)C[C@H](O)[C@H](Cc1ccccc1)NC(=O)O[C@H]1CO[C@H]2OCC[C@H]21` (some centres unmarked) [Example M], the Ki was under 0.03 nM. Take `CC(C)OC(=O)NC(C(=O)NN(Cc1ccc(-c2ccccn2)cc1)C[C@H](O)[C@H](Cc1ccccc1)NC(=O)O[C@H]1CO[C@H]2OCC[C@H]21)C(C)(C)C` (some centres unmarked) [Example J]: the inhibition constant (Ki) is under 0.03 nM. For the compound `Cc1cccc(C)c1OCC(=O)NN(Cc1ccc(-c2ccccn2)cc1)C[C@H](O)[C@H](Cc1ccccc1)NC(=O)O[C@H]1CO[C@H]2OCC[C@H]21` [Example AN], the inhibition constant (Ki) was under 0.03 nM. With `COC(=O)NC(C(=O)NN(Cc1ccc(OCc2ccoc2)cc1)C[C@H](O)[C@H](Cc1ccc(OC)cc1)NC(=O)O[C@H]1CO[C@H]2OCC[C@H]21)C(C)(C)C` (some centres unmarked) [Example V], the Ki was under 0.03 nM. With `COC(=O)NC(C(=O)NN(Cc1ccc(-c2ccccn2)cc1)C[C@H](O)[C@H](Cc1ccccc1)NC(=O)O[C@H]1C(=O)OCC1(C)C)C(C)(C)C` (some centres unmarked) [Example C], the Ki is under 0.03 nM. As for `CC(C)(C)C(NC(=O)C(F)(F)F)C(=O)NN(Cc1ccc(-c2ccccn2)cc1)C[C@H](O)[C@H](Cc1ccccc1)NC(=O)O[C@H]1CO[C@H]2OCC[C@H]21` (some centres unmarked) [Example N], the Ki is under 0.03 nM.

What is called Ki is a measure of affinity in units of concentration, obtained from inhibition or displacement.
